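Following 48 hours of exposure in 96-well plates, responses at five concentrations were used to interpolate endpoints linearly. Abbreviation: GI50, concentration required for 50% inhibition of growth. At the TGI there is no net growth.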 Some results are limits rather than exact numbers.

Experiment in all cases: inhibition of tumour cell growth, NCI panel, 48 h
The test system of test [1] is SK-MEL-5 melanoma.
The subject of test [2] is SW-620 colon.
For test [3], the system named is IGROV1 ovarian.
Test [4] concerns HT29 colon.
Test [5] has as its system NCI-H23 lung.
Test [6] relates to K-562 leukemia.
In test [7] the test system is SK-MEL-2 melanoma.
For test [8], the system named is A549 NSCLC.
For test [9], the system named is CAKI-1 renal.
Test [10] relates to HOP-92 NSCLC.

Turning to `Nc1ccc(/C=C/c2ccc3ncccc3c2)cc1`, the GI50 in test [1], in test [2], in test [3], in [4], in [5] and in test [6] was over 100 µM each time. The GI50 in [7] was over 100 µM; in test [8], over 100 µM; in [10] it was 12.9 µM. Further, the TGI in test [1], in test [2], in [3], in test [4], in test [5] and in test [6] was over 100 µM in each case. Further, the TGI in test [7], in [8], in test [9] and in test [10] was over 100 µM in each case.

Consider `ClC1=C(Cl)C(Cl)(C2(Cl)C(Cl)=C(Cl)C(Cl)=C2Cl)C(Cl)=C1Cl`, for which the GI50 in [1] is 1.27 µM; in [2], 0.19 µM; in test [3] it was 1.48 µM; in test [4], 0.242 µM; in test [5], 0.865 µM; in [6], 0.226 µM. In addition, the GI50 in [7] was 1.29 µM; in [8], 1.87 µM; in test [9] it was 0.265 µM; in [10] it was 0.175 µM. Further, the TGI is 2.73 µM in test [1]; 0.391 µM in [2]; 3.16 µM in test [3]; 0.617 µM in test [4]; 3.1 µM in test [5]; over 100 µM in [6]. In addition, the TGI in [7] was 3.14 µM; in [8], 4.16 µM; in test [9], 0.832 µM; in [10], 0.437 µM.

Consider `Sc1cccc2cccnc12`, for which the GI50 in test [1] is 0.822 µM; in test [2], 1.07 µM; in test [3], 0.541 µM; in test [4], 0.918 µM; in [5] it was 1.91 µM; in test [6], 0.385 µM. The GI50 in test [7] was 2.58 µM; in test [8], 0.497 µM; in [9] it was 1.67 µM; in test [10], 7.11 µM. Moreover, the TGI in test [1] is 4.25 µM; in test [2], 16.2 µM; in test [3], 12.6 µM; in test [4] it was 11.2 µM; in test [5] it was 16.8 µM; in [6], over 52 µM. For the same compound, the TGI was determined as 15.3 µM in test [7], 11.5 µM in [8], 14.5 µM in test [9] and 20.5 µM in test [10].

Regarding `COC(=O)C(=O)C(C#N)c1nc2ccccc2s1` (stereo not drawn), the TGI in [1], in [2], in [3], in test [4], in [5] and in test [6] was over 100 µM in each case. For the same compound, the TGI in test [7], in test [8], in [9] and in [10] was over 100 µM throughout.

As for `O=C([CH-]C(=O)c1ccccc1)c1ccccc1.O=C([CH-]C(=O)c1ccccc1)c1ccccc1.O=C([CH-]C(=O)c1ccccc1)c1ccccc1.[Ga+3]`, the GI50 in test [1] is 80.2 µM; in test [2], 65.1 µM; in test [3], 81.9 µM; in test [4] it was 88.8 µM; in [5], 47.4 µM; in test [6], 30.9 µM. For the same compound, the GI50 is 43.8 µM in test [7], 39.6 µM in [8], 67 µM in [9] and over 100 µM in test [10]. The TGI in test [1], in [2], in test [3], in test [4], in test [5] and in test [6] was over 100 µM throughout. Further, the TGI in test [7], in test [8], in test [9] and in [10] was over 100 µM in each case.

In the case of `N#CCCNc1nonc1-c1nc2ccccc2n1CC(=O)c1ccc(N)cc1`, the GI50 in [1] is 0.0271 µM; in [2], 0.031 µM; in test [3] it was 0.0356 µM; in test [4], 0.0226 µM; in test [5], 0.0312 µM; in [6], under 0.01 µM. For the same compound, the GI50 in test [7] was 0.498 µM; in test [8], 0.0345 µM; in [9] it was 0.0701 µM; in test [10], under 0.01 µM. The TGI in test [1] was 0.123 µM; in test [2], over 100 µM; in test [3] it was over 100 µM; in test [4] it was 0.0701 µM; in test [5], over 100 µM; in test [6], over 100 µM. Besides, the TGI was over 100 µM in test [8], over 100 µM in [9] and 0.456 µM in test [10].

On to `O=C(N/N=C/c1ccc(Cl)cc1)c1ccc(NC(=O)c2ccccn2)cc1`, for which the GI50 in test [1] was 8.76 µM; in [2] it was 59 µM; in test [3], 38.1 µM; in test [4] it was over 100 µM; in [5], 26.3 µM; in test [6], over 100 µM. The GI50 in test [7] is 17.7 µM; in test [8] it was 15.9 µM; in test [9], 21.1 µM; in test [10], 5.23 µM. In addition, the TGI in test [1] was 41.8 µM; in test [2], over 100 µM; in [3] it was over 100 µM; in test [4] it was over 100 µM; in test [5] it was over 100 µM; in test [6], over 100 µM. Besides, the TGI is over 100 µM in test [7], 68 µM in test [8], over 100 µM in [9] and 53.2 µM in test [10].

Turning to `O=S(=O)(NCCCNc1cc(-c2cn(-c3ccccc3)nc2-c2cccc(O)c2)ccn1)c1ccc(C(F)(F)F)cc1`, the GI50 is 1.56 µM in [1]; 1.78 µM in test [2]; 3.24 µM in [3]; 1.23 µM in test [4]; 1.65 µM in [5]; 0.924 µM in test [6]. The GI50 in [7] is 1.88 µM; in test [8], 2.14 µM; in test [9] it was 2.08 µM; in [10], 1.56 µM. Moreover, the TGI in test [1] amounted to 2.97 µM; in [2], 3.93 µM; in test [3], 9.55 µM; in test [4], 3.18 µM; in [5], 3.94 µM; in test [6], 4.59 µM. In addition, the TGI in test [7] turned out to be 3.63 µM; in [8], 7.45 µM; in [9], 7.81 µM; in [10] it was 3.9 µM.
